Patent US20050153412A1, “Aldehyde dehydrogenase II” (priority 2002, published 2005)
Where two headings read alike, the source gives them in different places.

How the values were obtained:
Assay type in all cases: biochemical, Gluconobacter oxydans DSM No. 4025 (FERM BP-3812)
[1] = molecular target: T1, SNDH II (aldehyde dehydrogenase) (Ketogulonicigenium vulgare, UniProt Q402A8); test: Electron acceptor suitability for conversion of L-sorbosone; conditions: conversion of L-sorbosone to vitamin C and/or 2-KGA
Excerpt: This was affirmed by the failure of the enzyme to convert L-sorbosone to vitamin C and/or 2-KGA using oxygen as a possible electron acceptor. Furthermore, no oxygen consumption was detected in the reaction mixture as detected with a dissolved oxygen probe. […] However, other conventional electron acceptors can be utilized in conjunction with the enzyme of this invention. Preferred electron acceptors are phenazine methosulfate (PMS), 2,6-dichlorophenolindophenol (DCIP), ferricyanide and cytochrome c. There is no minimum amount of electron acceptors which must be present for at least some of the aldehyde substrate to be converted to its corresponding acid. However, the amount of substrate which can be oxidized depends on the amount of the particular electron acceptor and its electron accepting characteristics.

[2] = molecular target: T1, SNDH II (aldehyde dehydrogenase); test: Effect of inhibitors and metals on L-sorbosone dehydrogenase activity, photometrical DCIP assay
Protocol: (§1) The reaction mixture consisted of 0.1 mM DCIP, 1.0 mM PMS, 50 mM potassium phosphate buffer (pH 7.0), 1.0 μM PQQ, 2 to 100 mM substrate (L-sorbosone, D-glucosone, D-glucose, etc.) and enzyme solution in a final volume of 100 μl water, said reaction mixture was prepared just before the assay. The reaction was started at 25° C. with L-sorbosone, and the enzyme activity was measured as the initial reduction rate of DCIP at 600 nm. One unit of the enzyme activity was defined as the amount of the enzyme catalyzing the reduction of 1 μmol DCIP per minute. The extinction coefficient of DCIP at pH 7.0 was taken as 14.2 mM^−1. A reference cuvette contained all the above constituents except for L-sorbosone.
The effects of metal ions and inhibitors on the L-sorbosone dehydrogenase activity of the enzyme were examined by measuring the activity using the same assay method as described under 1b) above. Each compound solution was stirred into the basal reaction mixture and the reaction was started with the addition of the enzyme.
Each compound was added to the reaction mixture at a concentration of 1.0 mM, with the exception that the concentrations of EDTA, NaN3 and monoiodoacetate were 5.0 mM.

[3] = molecular target: T1, SNDH II (aldehyde dehydrogenase); test: Substrate specificity of the purified enzyme, photometrical DCIP assay; conditions: for Relative activity (%): L-sorbosone and D-glucosone 2 mM, other substrates 100 mM, L-sorbosone = 100; for Product (deduced product of the oxidation of the substrate): substrates of Table 1A; for Relative activity compared with that for L-sorbosone (2 mM): at both pH 7.5 and 9.0, D-glucosone 2 mM, others 100 mM
Protocol: as §1
a) The substrate specificity of the enzyme was determined using the same enzyme assay method as described under 1b) above with the exception of using 100 mM potassium phosphate (pH 7.5) or 100 mM Tris-HCl (pH 9.0) as buffer. The relative activity of SNDH II for D-glucosone (2 mM), D-glucose (100 mM), and D-xylose (100 mM) was higher than that for L-sorbosone (2 mM) at both pH 7.5 and 9.0. However, the relative activity for L-sorbose (100 mM), D-sorbitol (100 mM), and L-gulono-γ-lactone (100 mM) was lower than 1% of that for L-sorbosone at both pH 7.5 and 9.0.

[4] = compound at 1.0 mM, None = 100.0
[5] = pH 7.5, 100 mM potassium phosphate

T1 sequence (Q402A8 entry or part of it): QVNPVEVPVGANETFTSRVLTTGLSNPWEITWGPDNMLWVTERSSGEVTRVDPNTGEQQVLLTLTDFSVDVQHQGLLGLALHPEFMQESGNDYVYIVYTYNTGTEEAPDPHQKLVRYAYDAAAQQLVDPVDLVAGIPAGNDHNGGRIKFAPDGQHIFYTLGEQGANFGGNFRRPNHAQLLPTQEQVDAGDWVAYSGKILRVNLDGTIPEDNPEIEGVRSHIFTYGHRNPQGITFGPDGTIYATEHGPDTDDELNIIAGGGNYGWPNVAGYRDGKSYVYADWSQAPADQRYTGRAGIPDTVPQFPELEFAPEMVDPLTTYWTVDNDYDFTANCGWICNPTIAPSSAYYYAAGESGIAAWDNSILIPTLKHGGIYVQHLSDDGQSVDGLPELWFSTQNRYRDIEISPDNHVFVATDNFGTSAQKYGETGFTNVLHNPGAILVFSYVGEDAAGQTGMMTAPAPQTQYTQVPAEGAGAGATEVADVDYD

NC(=O)c1ccc[n+]([C@H]2O[C@@H](COP(=O)([O-])OP(=O)(O)OC[C@H]3O[C@@H](n4cnc5c(N)ncnc54)[C@H](OP(=O)(O)O)[C@@H]3O)[C@H](O)[C@@H]2O)c1 [NADP]
Suitability as electron acceptor [1]: not suitable electron acceptors

O=C(O)CN(CCN(CC(=O)O)CC(=O)O)CC(=O)O [EDTA]
Relative activity (%) [2]: 97.9%

O=S(=O)([O-])[O-].O=S(=O)([O-])[O-].O=S(=O)([O-])[O-].[Fe+3].[Fe+3] [Fe2(SO4)3.xH2O]
Relative activity (%) [2, 4]: 73.2% | Effect on the enzyme activity ([2]; metal ions, 1.0 mM): inhibited

O=S(=O)([O-])[O-].[Cu+2] [CuSO4]
Relative activity (%) [2, 4]: <1% | Effect on the enzyme activity ([2]; metal ions, 1.0 mM): inhibited

[Cl-].[Cl-].[Zn+2] [ZnCl2]
Relative activity (%) [2, 4]: 64.9% | Effect on the enzyme activity ([2]; metal ions, 1.0 mM): inhibited

[N-]=[N+]=[N-].[Na+] [NaN3]
Relative activity (%) ([2]; compound at 5.0 mM, None = 100.0): 98.4%

O=C(CO)[C@@H](O)[C@H](O)[C@@H](O)CO [L-Sorbose]
Relative activity (%) [3, 5]: <1% | Relative activity (%) ([3]; pH 9.0, 100 mM Tris-HCl): <1%

O=C(O)CI [Monoiodoacetate]
Effect on the enzyme activity [2]: strongly inhibited | Relative activity (%) [2]: 34.7%

O=CC(=O)[C@@H](O)[C@H](O)[C@@H](O)CO [L-Sorbosone]
Relative activity (%) [3, 5]: 100% | Relative activity (%) ([3]; pH 9.0, 100 mM Tris-HCl): 100% | Product (deduced product of the oxidation of the substrate) [3]: Vitamin C/2-KGA

NC(=O)c1ccc[n+]([C@@H]2O[C@H](COP(=O)([O-])OP(=O)(O)OC[C@H]3O[C@@H](n4cnc5c(N)ncnc54)[C@H](O)[C@@H]3O)[C@@H](O)[C@H]2O)c1 [NAD]
Suitability as electron acceptor [1]: not suitable electron acceptors

O=C[C@H](O)[C@@H](O)[C@H](O)CO [D-Xylose]
Relative activity compared with that for L-sorbosone (2 mM) [3]: higher | Product (deduced product of the oxidation of the substrate) [3]: D-Xylonic acid

OC[C@@H](O)[C@@H](O)[C@H](O)[C@@H](O)CO [D-Sorbitol]
Relative activity (%) [3, 5]: <1% | Relative activity (%) ([3]; pH 9.0, 100 mM Tris-HCl): <1%

O=C[C@H](O)[C@@H](O)[C@H](O)[C@H](O)CO [D-Glucose]
Relative activity compared with that for L-sorbosone (2 mM) [3]: higher | Product (deduced product of the oxidation of the substrate) [3]: D-Gluconate

O.O.O.O.O.O.[Cl-].[Cl-].[Co+2] [CoCl2.6H2O]
Relative activity (%) [2, 4]: 60.8% | Effect on the enzyme activity ([2]; metal ions, 1.0 mM): inhibited

[Cl][Ti]([Cl])([Cl])[Cl] [TiCl4]
Relative activity (%) [2, 4]: 95.9%

O=CC(=O)[C@@H](O)[C@H](O)[C@H](O)CO [D-Glucosone]
Relative activity compared with that for L-sorbosone (2 mM) [3]: higher | Relative activity (%) [3, 5]: 483% | Product (deduced product of the oxidation of the substrate) [3]: D-iso-Ascorbic acid/2-Keto-D-gluconate

O.O.O.O.O.O.O=S(=O)([O-])[O-].[Ni+2] [NiSO4.6H2O]
Relative activity (%) [2, 4]: 82.9% | Effect on the enzyme activity ([2]; metal ions, 1.0 mM): inhibited

[Cl-].[Cl-].[Mg+2] [MgCl2]
Relative activity (%) [2, 4]: 88.5%

O=C1O[C@H]([C@@H](O)CO)[C@H](O)[C@@H]1O [L-Gulono-γ-lactone]
Relative activity (%) [3, 5]: <1% | Relative activity (%) ([3]; pH 9.0, 100 mM Tris-HCl): <1%

O=O [oxygen]
Suitability as electron acceptor [1]: does not work

O.O.[Ca+2].[Cl-].[Cl-] [CaCl2.2H2O]
Relative activity (%) [2, 4]: 94.7%
